One experiment has as its target human Factor XIa (Homo sapiens, UniProt P03951). The experiment in a line: biochemical. As to conditions: purified human Factor XIa, substrate S-2366, HEPES buffer pH 7.4.
Another experiment has as its target human plasma kallikrein (Homo sapiens, UniProt P03952). The experiment in a line: biochemical. As to conditions: purified human plasma kallikrein, substrate S-2302, sodium phosphate buffer pH 7.5.

As a reminder, the Ki is a dissociation constant, usually derived from enzyme kinetics or from competition with a known ligand. A higher Ki goes with a looser hold on the target.

Counter-ions that a name gives are not always drawn.

human Factor XIa, sequence (P03951 388-625 limits assumed): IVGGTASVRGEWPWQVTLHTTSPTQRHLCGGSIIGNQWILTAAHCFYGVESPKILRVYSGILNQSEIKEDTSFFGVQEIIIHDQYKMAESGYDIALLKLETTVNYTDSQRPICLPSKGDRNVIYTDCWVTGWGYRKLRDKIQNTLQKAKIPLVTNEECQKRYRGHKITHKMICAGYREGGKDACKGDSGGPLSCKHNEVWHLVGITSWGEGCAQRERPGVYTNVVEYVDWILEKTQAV
human Factor XIa, sequence (P03951 19-387 partner limits assumed): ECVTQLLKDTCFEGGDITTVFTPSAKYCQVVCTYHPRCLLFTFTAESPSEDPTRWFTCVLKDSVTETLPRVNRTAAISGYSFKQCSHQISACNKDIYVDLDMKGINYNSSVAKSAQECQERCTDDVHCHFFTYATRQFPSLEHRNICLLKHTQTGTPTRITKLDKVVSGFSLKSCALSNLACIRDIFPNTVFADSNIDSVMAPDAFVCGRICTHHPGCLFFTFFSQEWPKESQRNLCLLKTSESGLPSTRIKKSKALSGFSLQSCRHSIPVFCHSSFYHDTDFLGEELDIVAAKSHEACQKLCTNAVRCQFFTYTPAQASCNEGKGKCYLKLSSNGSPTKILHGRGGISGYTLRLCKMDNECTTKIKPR
human plasma kallikrein, sequence (P03952 391-638 limits assumed): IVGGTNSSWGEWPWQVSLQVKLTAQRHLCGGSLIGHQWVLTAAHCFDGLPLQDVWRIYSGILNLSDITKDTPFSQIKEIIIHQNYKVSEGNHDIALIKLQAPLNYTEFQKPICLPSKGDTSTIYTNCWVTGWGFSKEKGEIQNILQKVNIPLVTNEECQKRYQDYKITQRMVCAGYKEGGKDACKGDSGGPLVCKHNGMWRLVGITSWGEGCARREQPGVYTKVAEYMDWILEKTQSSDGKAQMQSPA
human plasma kallikrein, sequence (P03952 20-390 partner limits assumed): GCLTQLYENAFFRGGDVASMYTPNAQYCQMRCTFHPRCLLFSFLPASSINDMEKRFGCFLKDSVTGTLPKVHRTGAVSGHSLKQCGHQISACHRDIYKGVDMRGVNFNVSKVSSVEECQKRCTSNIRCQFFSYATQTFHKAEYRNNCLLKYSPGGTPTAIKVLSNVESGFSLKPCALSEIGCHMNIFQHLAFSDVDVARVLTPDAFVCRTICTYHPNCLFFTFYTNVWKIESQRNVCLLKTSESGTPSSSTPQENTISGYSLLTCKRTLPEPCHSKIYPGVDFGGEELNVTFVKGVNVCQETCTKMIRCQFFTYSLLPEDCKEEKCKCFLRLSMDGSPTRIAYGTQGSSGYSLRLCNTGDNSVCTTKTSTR

The compound `C[C@@H]1CCC[C@H](n2cnc(-c3c(-n4cnnn4)ccc(Cl)c3F)cc2=O)c2cc(ccn2)-c2cc(F)ccc2NC1=O` [Example 35, (10R,14S)-14-{4-[3-chloro-2-fluoro-6-(1H-1,2,3,4-tetrazol-1-yl)phenyl]-6-oxo-1,6-dihydropyrimidin-1-yl}-4-fluoro-10-methyl-8,16-diazatricyclo[13.3.1.0^2,7]nonadeca-1(19),2(7),3,5,15,17-hexaen-9-one trifluoroacetate] displayed an inhibition constant (Ki) at human Factor XIa of 0.1 nM. Still for that read-out and setting: with `C[C@@H]1CCC[C@H](n2cnc(-c3cc(Cl)ccc3-n3cc(C(F)(F)F)nn3)cc2=O)c2cc(ccn2)-c2ccc(C#N)cc2NC1=O` [Example 43, (10R,14S)-14-(4-{5-chloro-2-[4-(trifluoromethyl)-1H-1,2,3-triazol-1-yl]phenyl}-6-oxo-1,6-dihydropyrimidin-1-yl)-10-methyl-9-oxo-8,16-diazatricyclo [13.3.1.0^2,7]nonadeca-1(19),2(7),3,5,15,17-hexaene-5-carbonitrile trifluoroacetate] the figure was 3 nM; with `C[C@@H]1CCC[C@H](n2cnc(-c3cc(Cl)ccc3F)cc2=O)c2cc(ccn2)-c2cc(F)ccc2NC1=O` [Example 50, (10R,14S)-14-[4-(5-chloro-2-fluorophenyl)-6-oxo-1,6-dihydropyrimidin-1-yl]-4-fluoro-10-methyl-8,16-diazatricyclo[13.3.1.0^2,7]nonadeca-1(19),2(7),3,5,15,17-hexaen-9-one trifluoroacetate], 290 nM; with `C[C@@H]1CCC[C@H](n2cnc(-c3cc(Cl)ccc3-n3cc(Cl)nn3)cc2=O)c2cc(ccn2)-c2ccccc2NC1=O` [Example 57, (10R,14S)-14-{4-[5-chloro-2-(4-chloro-1H-1,2,3-triazol-1-yl)phenyl]-6-oxo-1,6-dihydropyrimidin-1-yl}-10-methyl-8,16-diazatricyclo[13.3.1.0^2,7]nonadeca-1(19),2,4,6,15,17-hexaen-9-one], 0.28 nM. On human plasma kallikrein, `COC(=O)Nc1ccc2c(c1)CCCCCC[C@H](n1cnc(-c3cc(Cl)ccc3-n3cc(Cl)nn3)cc1=O)c1nc-2c[nH]1` [Example 131, methyl N-[(14S)-14-{4-[5-chloro-2-(4-chloro-1H-1,2,3-triazol-1-)phenyl]-6-oxo-1,6-dihydropyrimidin-1-yl}-16,18-diazatricyclo[13.2.1.0^2,7]octadeca-1(17),2,4,6,15 (18)-pentaen-5-yl]carb amate trifluoroacetate] displayed an inhibition constant (Ki) of 2200 nM.

The compound `COC(=O)Nc1ccc2c(c1)CCCCCC[C@H](n1cnc(-c3cc(Cl)ccc3-n3cnnn3)cc1=O)c1nc-2c[nH]1` [Example 132, methyl N-[(14S)-14-{4-[5-chloro-2-(1H-1,2,3,4-tetrazol-1-yl)phenyl]-6-oxo-1,6-dihydropyrimidin-1-yl}-16,18-diazatricyclo[13.2.1.0^2,7]octadeca-1(17),2,4,6,15(18)-pentaen-5-yl]carbamate trifluoroacetate] registered a Ki at human plasma kallikrein of 340 nM. Compound `C[C@@H]1CCC[C@H](n2cnc(-c3cc(Cl)ccc3-n3cc(C(F)(F)F)nn3)cc2=O)c2cc(ccn2)-c2cc(F)ccc2NC1=O` [Example 135, (10R,14S)-14-(4-{5-chloro-2-[4-(trifluoromethyl)-1H-1,2,3-triazol-1-yl]phenyl}-6-oxo-1,6-dihydropyrimidin-1-yl)-4-fluoro-10-methyl-8,16-diazatricyclo [13.3.1.0^2,7]nonadeca-1(19),2(7),3,5,15,17-hexaen-9-one trifluoroacetate] returned a Ki at human plasma kallikrein of 29 nM. This Ki lies about 12-fold lower than the previous one.

Turning to `CCOc1cn(-c2ccc(Cl)c(F)c2-c2cc(=O)n([C@H]3CCC[C@@H](C)C(=O)Nc4ccc(F)cc4-c4ccnc3c4)cn2)nn1` [Example 136, (10R,14S)-14-{4-[3-chloro-6-(4-ethoxy-1H-1,2,3-triazol-1-yl)-2-fluorophenyl]-6-oxo-1,6-dihydropyrimidin-1-yl}-4-fluoro-10-methyl-8,16-diazatricyclo [13.3.1.0^2,7]nonadeca-1(19),2(7),3,5,15,17-hexaen-9-one trifluoroacetate], at human plasma kallikrein, affinity was put at a Ki of 76 nM. The same measure, in the same setting: the figure for `Cc1cn(-c2ccc(Cl)c(F)c2-c2cc(=O)n([C@H]3CCC[C@@H](C)C(=O)Nc4ccc(F)cc4-c4ccnc3c4)cn2)nn1` [Example 137, (10R,14S)-14-{4-[3-chloro-2-fluoro-6-(4-methyl-1H-1,2,3-triazol-1-yl)phenyl]-6-oxo-1,6-dihydropyrimidin-1-yl}-4-fluoro-10-methyl-8,16-diazatricyclo[13.3.1.0^2,7]nonadeca-1(19),2(7),3,5,15,17-hexaen-9-one] is 12 nM; for `C[C@@H]1CCC[C@H](n2cnc(-c3cc(Cl)ccc3-n3cc(O)nn3)cc2=O)c2cc(ccn2)-c2cc(F)ccc2NC1=O` [Example 139, (10R,14S)-14-{4-[5-chloro-2-(4-hydroxy-1H-1,2,3-triazol-1-yl)phenyl]-6-oxo-1,6-dihydropyrimidin-1-yl}-4-fluoro-10-methyl-8,16-diazatricyclo[13.3.1.0^2,7]nonadeca-1(19),2(7),3,5,15,17-hexaen-9-one trifluoroacetate] it is 510 nM; for `C[C@@H]1CCC[C@H](n2cnc(-c3cc(Cl)ccc3C(F)(F)F)cc2=O)c2cc(ccn2)-c2cc(F)ccc2NC1=O` [Example 141, (10R,14S)-14-{4-[5-chloro-2-(trifluoromethyl)phenyl]-6-oxo-1,6dihydropyrimidin-1-yl}-4-fluoro-10-methyl-8,16-diazatricyclo[13.3.1.0^2,7]nonadeca-1(19),2(7),3,5,15,17-hexaen-9-one trifluoroacetate] it is 580 nM. Consider `CCOc1cn(-c2ccc(Cl)cc2-c2cc(=O)n([C@H]3CCC[C@@H](C)C(=O)Nc4ccc(F)cc4-c4ccnc3c4)cn2)nn1` [Example 144, (10R,14S)-14-{4-[5-chloro-2-(4-ethoxy-1H-1,2,3-triazol-1-yl)phenyl]-6-oxo-1,6-dihydropyrimidin-1-yl}-4-fluoro-10-methyl-8,16-diazatricyclo[13.3.1.0^2,7]nonadeca-1(19),2(7),3,5,15,17-hexaen-9-one trifluoroacetate], for which the Ki at human plasma kallikrein was 210 nM. Regarding `C[C@@H]1CCC[C@H](n2cnc(-c3cc(Cl)ccc3OC(F)(F)F)cc2=O)c2cc(ccn2)-c2cc(F)ccc2NC1=O` [Example 146, (10R,14S)-14-{4-[5-chloro-2-(trifluoromethoxy)phenyl]-6-oxo-1,6-dihydropyrimidin-1-yl}-4-fluoro-10-methyl-8,16-diazatricyclo[13.3.1.0^2,7]nonadeca-1(19),2(7),3,5,15,17-hexaen-9-one trifluoroacetate], the inhibitory constant (Ki) at human plasma kallikrein is 3800 nM. For the compound `C[C@@H]1CCC[C@H](n2cnc(-c3c(Cl)ccc(Cl)c3F)cc2=O)c2cc(ccn2)-c2cc(F)ccc2NC1=O` [Example 147, (10R,14S)-14-[4-(3,6-dichloro-2-fluorophenyl)-6-oxo-1,6-dihydropyrimidin-1-yl]-4-fluoro-10-methyl-8,16-diazatricyclo[13.3.1.0^2,7]nonadeca-1(19),2(7),3,5,15,17-hexaen-9-one trifluoroacetate], the Ki at human plasma kallikrein turned out to be 210 nM.

At human plasma kallikrein, `C[C@@H]1CCC[C@H](n2cnc(-c3cc(Cl)ccc3-n3cc(C(N)=NO)nn3)cc2=O)c2cc(ccn2)-c2cc(F)ccc2NC1=O` [Example 149, 1-(4-chloro-2-{1-[(10R,14S)-4-fluoro-10-methyl-9-oxo-8,16-diazatricyclo [13.3.1.0^2,7]nonadeca-1(19),2(7),3,5,15,17-hexaen-14-yl]-6-oxo-1,6-dihydropyrimidin-4-yl}phenyl)-N-hydroxy-1H-1,2,3-triazole-4-carboximidamide bis-trifluoroacetate] registered an inhibition constant (Ki) of 38 nM.

For the origin of these results see US9777001B2 (priority 2014, dated 2017).
